According to the NIST ThermoML archive (doi:10.1021/acs.jced.5b01023):

Test: refractive index (Na D-line) (dimensionless); xn = mol fraction of the nth substance listed
Conditions: 101 kPa, Liquid, Standard Abbe refractometry

CC(=O)[O-].CCn1cc[n+](C)c1 [1-ethyl-3-methylimidazolium acetate] + CCCO
refractive index
Conditions | x1 = 0.1017 | x1 = 0.2004 | x1 = 0.3001 | x1 = 0.3998 | x1 = 0.4997 | x1 = 0.5996 | x1 = 0.6998 | x1 = 0.8002 | x1 = 0.8991 | x1 = 1
288.15 K | 1.41146 | 1.42938 | 1.44451 | 1.45711 | 1.46775 | 1.47687 | 1.485 | 1.49189 | 1.49712 | 1.50285
298.15 K | 1.40825 | 1.42622 | 1.44134 | 1.45401 | 1.46473 | 1.47411 | 1.48219 | 1.48919 | 1.49506 | 1.50069
308.15 K | 1.40453 | 1.42291 | 1.43827 | 1.45119 | 1.46189 | 1.47127 | 1.47942 | 1.48632 | 1.49221 | 1.49803
318.15 K | 1.40109 | 1.41973 | 1.43523 | 1.44803 | 1.45888 | 1.4683 | 1.47661 | 1.48365 | 1.48899 | 1.49527
328.15 K | 1.39753 | 1.41631 | 1.43208 | 1.44542 | 1.45593 | 1.4657 | 1.47372 | 1.48089 | 1.48673 | 1.49266
338.15 K | 1.39391 | 1.41301 | 1.4291 | 1.44211 | 1.45308 | 1.46267 | 1.4711 | 1.47818 | 1.48324 | 1.48995
348.15 K | 1.39115 | 1.41033 | 1.42601 | 1.43912 | 1.45026 | 1.45993 | 1.46823 | 1.47546 | 1.4803 | 1.48721

CC(=O)[O-].CCn1cc[n+](C)c1 [1-ethyl-3-methylimidazolium acetate] + CC(C)O
refractive index
Conditions | x1 = 0.1 | x1 = 0.2 | x1 = 0.3 | x1 = 0.4 | x1 = 0.5001 | x1 = 0.5998 | x1 = 0.7 | x1 = 0.7994 | x1 = 0.9 | x1 = 1
288.15 K | 1.40475 | – | 1.43991 | 1.45344 | 1.4651 | 1.47535 | 1.48406 | 1.4912 | 1.49776 | 1.50285
298.15 K | 1.40107 | – | 1.43669 | 1.45075 | 1.46242 | 1.47243 | 1.48131 | 1.48861 | 1.49526 | 1.50069
308.15 K | 1.39762 | 1.42276 | 1.4336 | 1.4475 | – | 1.46954 | 1.4784 | 1.48593 | 1.49257 | 1.49803
318.15 K | 1.39423 | 1.41947 | 1.43066 | 1.44471 | 1.45641 | 1.46689 | 1.47561 | 1.48324 | 1.48986 | 1.49527
328.15 K | 1.39112 | 1.41637 | 1.42763 | 1.44229 | 1.45352 | 1.46489 | 1.47293 | 1.48046 | 1.48714 | 1.49266
338.15 K | 1.38677 | 1.41309 | 1.42464 | 1.43908 | 1.45107 | 1.45943 | 1.47054 | 1.47775 | 1.48466 | 1.48995
